Experimental data: patent US11490618B2, “Preservation compositions” (Conopco, Inc., priority 2018, dated 2022)

Experiments:
[1] = system: Pool 1 Gram negative non-fermenting bacteria: Pseudomonas aeruginosa, Pseudomonas putida & Burkholderia cepacia; test: Liquid broth checkerboard assay (MIC, ΣFIC synergy), microorganism Pool 1; assay type: cell-based; conditions: tryptic soy broth, 30° C., 24 hours, ΣFIC<1 synergistic
From the text: (§1) The differing behaviours of inhibitory antimicrobials in isolation and mixtures have been widely explored using the concept of the Fractional Concentration and Fractional Inhibitory Concentration (FIC). See for instance J R W Lambert and R Lambert, J. Appl. Microbiol 95, 734 (2003); T. Jadavji, C G Prober and R Cheung, Antimicrobial Agents and Chemotherapy 26, 91 (1984), and WO 2004/006876. These parameters can be defined as follows: FC(component a)=Concentration of component a tested in the mixture/MIC(component a tested as a single active) FIC(component a)=MIC(component a tested in the mixture)/MIC(component a tested as a single active)
(§2) These relationships can be expressed mathematically by summing the fractional MIC values for all the components present in the mixture to give the “fractional inhibitory index”: ΣFIC=FIC(component 1)+FIC(component 2)
(§3) ΣFIC≥1 corresponds to additive or antagonistic activity
(§4) ΣFIC<1 corresponds to synergistic activity
(§5) Liquid broth assays (MIC and checkerboard) were conducted to identify the minimum concentration(s) of individual and binary combinations of preservation chemicals. A modified methodology to ISO 20776-1:2006 was utilised for the screening as follows. Stock solutions of preservation chemicals and tryptic soy broth were inoculated with 1-5×10^6 microorganisms and incubated at 30° C. for 24 hours, after which optical densities at OD600 nm were measured. […] Preservation chemicals were screened at a concentration range of 0.0156-2%.

[2] = system: Pool 2 Gram negative fermenting bacteria: Enterobacter gergoviae & Klebsiella species; test: Liquid broth checkerboard assay (MIC, ΣFIC synergy), microorganism Pool 2; assay type: cell-based; conditions: tryptic soy broth, 30° C., 24 hours, ΣFIC<1 synergistic
From the text: as §1, §2, §3, §4, §5

[3] = binary combination with Citric Acid
[4] = binary combination with Itaconic acid

Compound | ΣFIC synergy score [1, 3] | ΣFIC synergy score [1, 4] | ΣFIC synergy score [2, 3] | ΣFIC synergy score [2, 4]
CC(C)=CCC/C(C)=C/CO [Geraniol] | 0.75 | 0.31 | 1.06 | 0.5
C=C(C)[C@@H]1CC=C(CO)CC1 [Perillyl alcohol] | 0.38 | 0.38 | 0.5 | 0.38
